In ChEMBL document CHEMBL1157539, “Thousands of chemical starting points for antimalarial lead identification” (Nature, 2010):

System: Plasmodium falciparum
Experiment: GSK_TCMDC: Inhibition of Plasmodium falciparum 3D7 in whole erythrocytes, using parasite LDH activity as an index of growth.
Type: functional, organism-based
Conditions: Plasmodium falciparum, 3D7

Compound	XC50 [µM]
COc1ccc2c(N/N=C/c3cccc([N+](=O)[O-])c3)cc(C)nc2c1	0.557
O=C(Nc1ccc(N2CCN(C(=O)/C=C/c3ccccc3)CC2)c(Cl)c1)c1ccc([N+](=O)[O-])o1	0.859
O=C(Nc1nc(-c2ccccn2)cc2ccccc12)c1cccc(Cl)c1	0.754
Clc1ccc2c(Cl)c(CNCCCNc3nc4ccccc4[nH]3)[nH]c2c1	0.219
CCCCN(C(=O)c1ccccc1C)c1nnc(-c2ccccc2C)s1	0.927
O=C(NC1CC1)c1cnc(N2CCN(Cc3ccc(Cl)cc3)CC2)c(Cl)c1	0.847
CN(C)CCOc1cc(NC(=O)Nc2cccc3c(-c4ccncc4)cccc23)ccc1I	0.734
CCc1c(C(=O)NC2CCC(N3CCC(c4ccccc4OC)CC3)CC2)[nH]c2ccc(Br)cc12 (stereo unspecified)	1.12
CC(C)(C)c1ccc(CN2CCC(CNC(=O)c3cc(-c4cccc(C(F)(F)F)c4)cs3)C2)cc1 (stereo unspecified)	1.03
CCc1ccc(C2=Nn3c(nnc3-c3cccs3)SC2)cc1	1.29
N=C(N)c1cccc(OCCCOc2cccc(NC(=O)Nc3ccc([N+](=O)[O-])cc3)c2)c1	0.862
CN(C)CCN(C)Cc1ccc(-c2ccc3c(Nc4ccc(Oc5ccccn5)cc4)ccnc3c2)o1	0.424
FC(F)(F)c1ccc2c(NCCCNc3ccnc4cc(C(F)(F)F)ccc34)ccnc2c1	0.0315
OC(c1cc(C(F)(F)F)nc2c(F)cccc12)C1CCCCN1 (stereo unspecified)	0.782
O=C(NCCc1ccccc1)N(Cc1cccc(-c2ccc(CNC3CCCC3)cc2)c1)C1CCN(Cc2ccccc2)CC1	0.404
CCNc1cc(CC)nc(Nc2ccc(C)cc2)n1	0.848
CCNc1cc(C(=O)N[C@@H](Cc2ccccc2)[C@H](O)CNC(C)(C)Cc2cccc(Cl)c2)cc(N2CCCCS2(=O)=O)c1	0.887
COc1ccc(OCCCON)cc1	0.167
C[C@@H](N/C(=N\c1ccccc1Cl)Nc1ccc(C#N)cc1O)c1ccc(Br)cc1	0.753
Cc1ccc(C(=O)c2oc3ccc4c(C)cc(=O)oc4c3c2C)cc1	1.03
O=C(Nc1ccc2c(c1)CCN2C1CCN(Cc2cc(F)cc(F)c2F)C1)c1ccco1 (stereo unspecified)	0.59
Oc1ccc2nc(Nc3ccccc3)nc(NCCc3ccccc3)c2c1	0.152
COCCNCc1ccc(-c2ccc(CNC3CCN(Cc4ccccc4)CC3)cc2)cc1	0.669
CN1CCCN(Cc2cccc(-c3cccc(NC(=O)c4ccc(C#N)cc4)c3)c2)CC1	1.14

Compound	XC50 [µM]
Cc1cccc2nc(-c3ccc(-c4ccc(CN5CCC(N)C5)cc4)s3)[nH]c12 (stereo unspecified)	0.373
CCn1c(SC)nnc1C1CCCN(CC(=O)Nc2nc3ccc(OC)cc3s2)C1 (stereo unspecified)	0.746
Cc1ccc(NC(=O)c2nc(N3CCN(c4ccncc4)CC3)ccc2Cl)cc1F	0.812
COc1cc2nc(NCCc3ccccc3)nc(NCc3nccs3)c2cc1OC	0.532
CC(C)[C@H](NC(=O)c1ccc(O)c(-c2ccc(Cl)c(Cl)c2)c1)C(=O)NC1CCCCCC1	0.224
COc1ccc2nccc([C@H](O)CN3CCC(NCc4cc(C)c5c(c4)OCCO5)CC3)c2n1	0.902
CC(C)NCc1ccc(-c2cccc(NC(=O)c3cccc(Cl)c3)c2)cc1	0.728
O=[N+]([O-])c1cccc(CNC2CCN(Cc3ccc(-c4ccccc4)cc3)CC2)c1	0.231
NC(=O)c1ccsc1NC(=O)CNC(c1ccc(F)cc1)c1cccs1 (stereo unspecified)	0.947
COc1ccc2nccc([C@@H](O)CN3CCC(NC(=O)c4cc5c(Cl)cc(Cl)cc5[nH]4)CC3)c2c1	0.233
COc1cc(N(Cc2ccccc2C)S(=O)(=O)Cc2ccccc2[N+](=O)[O-])c(OC)cc1Cl	1.01
O=C(Cc1ccccc1)NC(c1ccc(Cl)cc1)c1ccc2cccnc2c1O (stereo unspecified)	0.861
CN(C)CCN(C)Cc1ccc(-c2cccc(NC(=O)c3ccc(Cl)cc3)c2)cc1	0.558
Cc1[nH]c(C)c(-c2ccc(OCCOc3ccc(C(F)(F)F)cn3)cc2)c(=O)c1Br	0.138
O=C(NCCN1CCCCC1)c1cc2cc(-c3ccccc3)ccc2n1S(=O)(=O)c1ccccc1	1.12
CC(C)c1ccc(CN2CCC(CNC(=O)c3cc(-c4ccc(N(C)C)cc4)cs3)C2)cc1 (stereo unspecified)	1.25
CC(C)C[C@H](Nc1ccc(C#N)c2ccccc12)C(=O)NC(C)(C)C12CC3CC(CC(C3)C1)C2	0.916
Cc1nc(-c2cccc(Nc3nccc(NCC(O)c4ccccc4C(F)(F)F)n3)c2)cs1 (stereo unspecified)	0.834
COc1ccc(CCNc2nc(NCCc3cnc[nH]3)nc(NCc3cccc4ccccc34)n2)cc1OC	0.537
O=C(O)c1cc(OCC(O)COc2ccc(O)c(C(=O)O)c2)ccc1O	0.227
c1ccc2c(NCCc3c[nH]cn3)c3ccccc3nc2c1	1.04
CC(=O)Nc1ncc(C(=O)Nc2cccc(-c3cccc(-c4nc5cccc(C)c5[nH]4)c3)c2)s1	0.354
CNCCNCc1ccc(-c2cccc(-c3nc4cc(C(F)(F)F)ccc4[nH]3)c2)cc1	0.628
c1ccc(N2CCN(c3cc(-c4cccnc4)nc(-c4ccncc4)n3)CC2)nc1	0.757

Compound	XC50 [µM]
Cc1ccc(Cn2ncc(N3CCNCC3)c(Cl)c2=O)cc1NC(=O)Nc1ccc(-c2ccccc2)cc1	1.12
CC(C)(C)OC(=O)N(Cc1cc(-n2nnnc2C(F)(F)F)ccc1O)[C@H]1CCCN(C(=O)OC(C)(C)C)[C@H]1c1ccccc1	0.719
COc1ccc(-c2ccc(NC(=O)c3cccc(C#N)c3)cc2)cc1CN(C)C	0.735
COc1ccc(C2CC(c3cccs3)=NN2C(=O)CNc2ccccc2F)cc1OC (stereo unspecified)	0.631
CC(C)(C)c1ccc(CNC(=O)COc2ccc(-c3nnc(-c4cccc([N+](=O)[O-])c4)o3)cc2[N+](=O)[O-])cc1	0.926
C[C@@H](CC1CCCCC1)OC(=O)N(C)[C@H]1CCN(C#N)C1	0.219
CC(C)CNC(=O)c1ccnc(-c2ccc(CNCCCc3ccccc3)cc2)c1	0.728
CC(C)CN1CCCN(Cc2cccc(NC(=O)c3ccc(Cl)c(Cl)c3)c2)CC1	0.893
CCCCNC[C@@H](O)[C@H](Cc1ccccc1)NC(=O)c1cc(NCC)cc(N2CCCCS2(=O)=O)c1	0.398
Cc1cccc(C(=O)Nc2ccnc(N(C)C3CCN(CC(C)C)CC3)c2)c1	0.869
Fc1cccc(C=NN=c2cc[nH]c3ccc(C(F)(F)F)cc23)c1	0.733
N#Cc1cccc(C(=O)Nc2ccc(-c3cccc(CN4CCCC4)c3)cc2)c1	0.712
O=C(O)c1ccc(OCOCOc2ccc(C(=O)O)c(O)c2)cc1O	0.19
Cc1nc2ccc(Nc3nccc(-c4c(-c5cccc(NC(=O)c6c(F)cccc6F)c5)nn5ccccc45)n3)cc2nc1C	1.07
O=C(NCCCCN1CCC(c2ccc3c(c2OCCO)CCCC3)CC1)c1sc(-c2ccc(C(F)(F)F)cc2)nc1CO	1.05
CCOc1cc(O)c(-c2nc(N)ncc2-c2ccc3c(c2)OCCO3)cc1CC	0.729
COc1c(C2CCN(CCCCNC(=O)c3ccc(-c4ccc(Cl)cc4)cn3)CC2)ccc2c1CCCC2	0.912
COc1ccccc1-c1cccc2c(NC(=O)Nc3ccc4nccc(N5CCN(C)CC5)c4c3)ccnc12	1
Cc1ccc(C)c(S(=O)(=O)Nc2ccc(Br)cc2C(=O)Nc2cccc(C(F)(F)F)c2)c1	1.21
NS(=O)(=O)c1ccc(CNC(=O)c2cnc3c(O)cccc3c2Nc2cccc(NC(=O)c3ccc(Cl)c(Cl)c3)c2)cc1	1.72
O=C(Nc1cccc(Cl)c1)N[C@H]1CCN(Cc2ccc(OCCCN3CCCCC3)cc2)C1	0.729
NCC1CCCN1Cc1ccc(-c2ccc(-c3nc4cc(C(F)(F)F)ccc4[nH]3)s2)cc1 (stereo unspecified)	0.794
COc1cc(CNCCCCCCNCc2cc(OC)c3ccccc3c2OC)c(OC)c2ccccc12	0.7
N=C1NC(=O)C(=Cc2cn(-c3ccccc3)nc2-c2cccc(S(=O)(=O)N3CCCC3)c2)S1	1.14

Compound	XC50 [µM]
O=C(Nc1cc(C(F)(F)F)cc(C(F)(F)F)c1)NC(CCCN1CCC2(CC1)OCc1ccccc12)c1ccc(Cl)c(Cl)c1 (stereo unspecified)	0.82
CCCc1cc(Cc2cnc(N)nc2N)cc(CCC)c1OCCCCC(=O)O	0.195
Fc1ccc2[nH]c(-c3ccc(-c4ccc(CN5CCCCC5)cc4)cc3)nc2c1	0.349
O=C(/C=C/c1ccc(Cl)c(Cl)c1)N1CCC(CN2CCC(c3c[nH]c4cc5c(cc34)OCO5)CC2)CC1	0.68
O=c1cc(N2CCNCC2)c(Cl)nn1Cc1ccc(NS(=O)(=O)c2ccc(Oc3ccccc3)cc2)cc1	0.574
O=C(NC1CCN(CCN2CCC(c3cn(CCO)c4ccccc34)CC2)CC1)c1ccc(-c2ccc(C(F)(F)F)cc2)cc1	0.74
O=C(Nc1ccc(C(=O)Oc2ccc3ccccc3c2)cc1)N[C@@H](Cc1ccc(O)cc1)C(=O)NC1CCN(Cc2ccc(O)cc2)C1 (stereo partly specified)	1.06
CCCC(=O)Nc1ccc(OCCCCN(CC(C)(C)C)c2ccc(C#N)c(C(F)(F)F)c2)cc1	1.35
O=C(NC1CCC(CN2CCC(c3c[nH]c4ccccc34)CC2)CC1)c1cc(-c2ccc(F)cc2F)ccc1O (stereo unspecified)	0.356
O=C(/C=C/c1ccc(Cl)c(Cl)c1)NCC[C@@H]1C[C@H]1CCN1CCC(c2c[nH]c3ccccc23)CC1	0.794
COc1cc(Cc2cnc(N)nc2N)c2c(c1OC)OC(C)C=C2 (stereo unspecified)	1.25
Cc1cnc(NCCc2ccc(F)cc2)nc1N[C@@H](CC(C)C)C(=O)Nc1ccccc1	0.97
CCn1cc2c3c(cc(C(=O)N[C@@H](Cc4ccccc4)[C@H](O)CNCc4cccc(OC)c4)cc31)N(C)S(=O)(=O)CC2	0.667
CN(C)Cc1c(O)ccc2[nH]c(-c3ccc(F)cc3F)nc12	1.3
CCOc1cc(C(=O)Nc2cccnc2)cc(Br)c1OCCC(C)C	1.08
Cc1cc(N[C@@H](Cc2ccccc2)C(=O)NC2CCCC2)nc(NCCc2cccs2)n1	1.4
c1cc2c3c(cccc3c1)NC(CCCCCCCCC1=Nc3cccc4cccc(c34)N1)=N2	0.826
Cc1nccn1Cc1cc(C(C)(C)C)c(O)c(C(C)(C)C)c1	0.788
COc1ccc2nccc([C@@H](O)CN3CCC(NCc4ccc5nnsc5c4)CC3)c2c1	0.714
Cc1ncccc1C(=O)Nc1cccc(-c2cccc(-c3nc4cc(C(F)(F)F)ccc4[nH]3)c2)c1	0.602
CCCN(Cc1nnc(-c2cccs2)o1)C(=O)C1COc2ccccc2O1 (stereo unspecified)	0.85
N#Cc1ccc(-c2ccc(C(=O)NCCCCN3CCC(c4cn(CCCO)c5ccccc45)CC3)cc2)cc1	0.75
Cc1nc(-c2cccc(C(=O)NC3CCC(CCN4CCc5ccc(-c6cccnc6)cc5CC4)CC3)c2)no1 (stereo unspecified)	0.762
CC1CCN(c2nc(C(=O)Nc3ccc(F)cc3C(F)(F)F)c(C(C)C)s2)CC1	0.229
